We go through 14 substances from article PMC11009412, “Pathogenic mutations of human phosphorylation sites affect protein–protein interactions” (Nature Communications, 2024).

In the assay the test system is BirA*-FLAG-GATAD1 variants in Flp-In-293 cells. The experiment in a line: BioID proximity labelling of full-length GATAD1 variants (SILAC). It counts as cell-based, human. The note with it: GATAD1 WT vs S102P, significant proteins only; for Log2_Ratio.H.L.normalized.WT_S102P_forward: forward experiment (label swap performed, sign inverted against the H/L ratio); for Log2_Ratio.H.L.normalized.WT_S102P_forward / Log2_Ratio.H.L.normalized.WT_S102P_reverse: log2 of normalized H/L ratio; for Ratio.H.L.normalized.WT_S102P_forward: forward experiment; for Log2_Ratio.H.L.normalized.WT_S102P_reverse / Ratio.H.L.normalized.WT_S102P_reverse: reverse experiment. An excerpt:
The GATAD1 gene variants were ordered in a pTwist ENTR Kozak vector from Twist Bioscience. The genes were then transferred to a pDEST_pcDNA5_BirA_FLAG_Nterm vector[97] using the Gateway Clonase II system (Thermo Fisher Scientific). The resulting vectors, pEXPR_GATAD1-WT_N-term_BirA_FLAG, pEXPR_GATAD1-S102P_N-term_BirA_FLAG, pEXPR_GATAD1-S102D_N-term_BirA_FLAG, and pEXPR_GATAD1-S102A_N-term_BirA_FLAG, were used to generate tetracycline-inducible stable Flp-In^TM-293 T-REx cells. A 6-well plate was co-transfected with 0.5 µg of the pEXPR plasmid and 1 µg of the pOG44 Flp-recombinase expression vector (Thermo Fisher Scientific) using 4.5 µg of PEI (Polysciences) as a transfection reagent. The following day, the cells were trypsinized and transferred to a 10 cm dish containing DMEM supplemented with 10% FCS and 200 µg/ml hygromycin B (Invivogen) for selection. The cells were cultured for approximately 18 days with media exchange every 3 days until visible colonies were observed. After around 18 days, the colonies were trypsinized and transferred to another 10 cm dish for further characterization and experiments.
Stable Flp-In^TM-293 cell lines expressing GATAD1 variants were cultured using SILAC light (Lys0, Arg0) and SILAC heavy (Lys8, Arg10) media, as explained in the cell culture section. After full labeling, cells were split into 15 cm dishes and were treated with 1 μg/mL tetracycline for 24 h to induce the expression of GATAD1. After the induction period, cells were incubated with 50 μM biotin overnight for proximity biotinylation. As a control, wild-type GATAD1 cells, without biotin or tetracycline addition, were used. Samples were multiplexed, as shown in Supplementary Fig. 41A with both forward and reverse label swap (n = 2). Cells were then lysed in lysis buffer (50 mM Tris-HCl pH 7.5, 150 mM NaCl, 1% Triton X-100, 1 mM EDTA, 1 mM EGTA, 0.1% SDS) with freshly added protease inhibitors and 1% sodium deoxycholate. To digest the excess DNA, 1 μl of Benzonase was added, and the samples were incubated for 20 min at 37 °C. Biotinylated proteins were enriched for 3 h at 4 °C using streptavidin-sepharose beads (GE Cat# 17-5113-01). Beads were pre-washed twice with 0.01% BSA and twice with lysis buffer. After enrichment, the beads were washed one time with lysis buffer, two times with washing buffer (50 mM HEPES-KOH pH 8.0, 100 mM KCl, 10% glycerol, 2 mM EDTA, 0.1% NP-40), and six times with 50 mM ammonium bicarbonate. Beads were resuspended in ammonium bicarbonate, and an on-bead protein digest with 1 μg of trypsin followed overnight. The next day, the digested proteins were transferred to a fresh tube and were incubated with 10 mM DTT for 30 min at 37 °C and with 55 mM iodoacetamide for 20 min at 37 °C in the dark. Samples were desalted with StageTips.
Peptides were separated using reversed-phase liquid chromatography (EASY nLC II 1200, Thermo Fisher Scientific) with self-made C18 microcolumns (20 cm long) packed with ReproSil-Pur C18-AQ 1.9 μm resin (Dr. Maisch, cat# r119.aq.0001). The chromatography system was coupled online to the electrospray ion source (Proxeon) of an Orbitrap Exploris 480 mass spectrometer (Thermo Fisher Scientific). The mobile phase consisted of buffer A (0.1% formic acid and 5% acetonitrile) and buffer B (0.1% formic acid and 80% acetonitrile). Peptides were eluted using a gradient with increasing concentrations of buffer B over 110 minutes, at a flow rate of 250 nl/min. Mass spectrometry data was acquired in data-dependent mode with settings for one full scan (resolution: 60,000; m/z range: 350–1600; normalized AGC target: 300%; maximum injection time: 10 ms), followed by top 20 MS/MS scans using higher-energy collisional dissociation (resolution: 15,000; m/z range: 200–2000; normalized AGC target: 100%; maximum injection time: 120 ms; isolation width: 1.3 m/z; normalized collision energy: 28%).
Raw files were analyzed with MaxQuant, version 2.0.3.0. […]

For the substance MED1, the Log2_Ratio.H.L.normalized.WT_S102P_forward is reported as 1.28, the Ratio.H.L.normalized.WT_S102P_forward was 0.4118, the Log2_Ratio.H.L.normalized.WT_S102P_reverse stood at 1.018 and the Ratio.H.L.normalized.WT_S102P_reverse amounted to 2.0257.
The matching figures for MGA: 1.435, 0.3699, 1.064 and 2.0912.
For the substance ZNF318, the Log2_Ratio.H.L.normalized.WT_S102P_forward worked out at 1.385, the Ratio.H.L.normalized.WT_S102P_forward stood at 0.3829, the Log2_Ratio.H.L.normalized.WT_S102P_reverse is reported as 1.241 and the Ratio.H.L.normalized.WT_S102P_reverse was 2.3636.
Take RBBP6: the Log2_Ratio.H.L.normalized.WT_S102P_forward was determined as 1.156, the Ratio.H.L.normalized.WT_S102P_forward is 0.4486, the Log2_Ratio.H.L.normalized.WT_S102P_reverse is reported as 1.0059 and the Ratio.H.L.normalized.WT_S102P_reverse was 2.0082.
Regarding BOD1L1, the Log2_Ratio.H.L.normalized.WT_S102P_forward is given as 1.279, the Ratio.H.L.normalized.WT_S102P_forward stood at 0.4121, the Log2_Ratio.H.L.normalized.WT_S102P_reverse amounted to 1.335 and the Ratio.H.L.normalized.WT_S102P_reverse came to 2.5226.
In the same order, the values of PSME3 are 1.443, 0.3677, 1.216 and 2.3229.
In the same order, the values of PCF11 are 1.509, 0.3515, 1.2027 and 2.3017.
In the same order, the values of NCOR1 are 1.327, 0.3987, 1.25 and 2.3792.
With BCLAF1, the Log2_Ratio.H.L.normalized.WT_S102P_forward was determined as 1.402, the Ratio.H.L.normalized.WT_S102P_forward was 0.3784, the Log2_Ratio.H.L.normalized.WT_S102P_reverse is on record as 1.045 and the Ratio.H.L.normalized.WT_S102P_reverse came to 2.064.
The matching figures for TPR: 1.211, 0.4319, 1.117 and 2.169.
In the same order, the values of ZC3H4 are 1.304, 0.405, 1.071 and 2.1009.
The matching figures for “PSPGRQNSKAPKLTL [NCOA6, wild-type non-phosphorylated 15-mer]”: 1.334, 0.3966, 1.3003 and 2.4628.
For NPM1, the Log2_Ratio.H.L.normalized.WT_S102P_forward was determined as 1.325, the Ratio.H.L.normalized.WT_S102P_forward came out at 0.3991, the Log2_Ratio.H.L.normalized.WT_S102P_reverse was 1.034 and the Ratio.H.L.normalized.WT_S102P_reverse was found to be 2.0483.
On to HDGFRP2, for which the Log2_Ratio.H.L.normalized.WT_S102P_forward was 1.523, the Ratio.H.L.normalized.WT_S102P_forward was found to be 0.348, the Log2_Ratio.H.L.normalized.WT_S102P_reverse turned out to be 1.484 and the Ratio.H.L.normalized.WT_S102P_reverse was 2.7966.
